The record followed here is patent publication US20210177879A1, “VITAMIN D RECEPTOR AGONIST” (Guanghzou University of Chinese Medicine, priority 2018, published 2021).

Holding throughout (assay type): in vivo, Balb/c mice
The test system of assay [1] is AOM/DSS colon cancer model. As to the kind of experiment: AOM/DSS colon cancer model, Experiment 1 (body weight, anal prolapse, organ coefficient, colon and tumor indexes). On the procedure:
(§1) Experimental method: 90 Balb/c mice of 6-8 weeks were purchased from the Experimental Animal Center in Guangzhou University of Chinese Medicine, weighed about 18-22 g, and subjected to adaptive feeding for 10 days. Modeling was divided into three stages. In the first stage, except for the normal group of animals being given saline injection, each of the other animals were intraperitoneally injected with a carcinogen AOM (10 mg/kg), and given free access to 2% DSS water from the next day for 7 days, and then given access to replaced regular drinking water for 14 days. In the second stage, the animals were given free access to 2% DSS water for 10 days, and then given access to replaced regular drinking water for 14 days. In the third stage, the animals were given free access to 2% DSS water for 10 days, and then given access to replaced regular drinking water for 11 days. The normal group was given access to regular drinking water throughout the experiment. The diet, water drinking and body weights of the animals were recorded daily and DAI scores were made, and the animals were killed and harvested at the 10th week. In this experiment, the animals were divided into groups and administrated on the first day of a modeling period of the second stage, and the total number of groups was set to 5 groups. The first group was a blank control group (Normal), in which a total of 12 animals were given access to drinking water by gavage; the second group was a model group (AOM/DSS), in which a total of 22 animals were given access to drinking water by gavage; the third group was a positive drug control group (5-ASA+AOM/DSS), in which a total of 22 animals were given access to 100 mg/kg of mesalazine (5-ASA) by gavage; and the fourth and fifth groups were monotropein-intervening groups (Mo+AOM/DSS), which were a high dose of 8 mg/kg and a low dose of 2 mg/kg, respectively, with 17 animals in each group. Dosing was conducted daily until dissection.
(1) The calculation formula of a DAI score: DAI value=(score of weight loss+score of stool trait+score of blood in stool)/3.
The animals were anesthetized and harvested, and the liver, spleen, thymus and testis were weighed to calculate the organ coefficient; the colon tissue was taken, measured with a ruler for the length, and measured with a vernier caliper for the thickness, and the number and size of tumors and degree of colonic ulceration and adhesion were recorded; respective tissues were cut into small pieces and fixed, and the remaining tissues were frozen and stored; and the fixed tissues were used for HE staining and immunohistochemistry.

The next assay concerns IL-6, IL-10, IL-1β. The assay can be described thus: Determination of cytokines in intestinal tumor tissues by Elisa. The following applies: vs model group; high-dose monotropein (8 mg/kg) and positive drug 5-ASA (100 mg/kg). As to the method:
as §1, with “The first group was a blank control group (Normal), in which a total of 12 animals were given access to drinking water by gavage; the second group was a model group (AOM/DSS), in which a total of 22 animals were given access to drinking water by gavage; the third group was a positive drug control group (5-ASA+AOM/DSS), in which a total of 22 animals were given access to 100 mg/kg of mesalazine (5-ASA) by gavage; and the fourth and fifth groups were monotropein-intervening groups (Mo+AOM/DSS), which were a high dose of 8 mg/kg and a low dose of 2 mg/kg, respectively, with 17 animals in each group. Dosing was conducted daily until dissection.” left out
The intestinal tumor tissues frozen and stored at −80° C. were taken and homogenized, and the homogenate was determined with a BCA kit for the total protein concentration thereof. The homogenate was diluted by 20 times and then determined by Elisa method for cytokines: IL-6, IL-10, and IL-1β. […]

Assay [2] concerns peripheral blood macrophages. As to the kind of experiment: Typing of peripheral blood macrophages by flow cytometry. The note with it: compared with normal group. As to the method: as §1, with “The first group was a blank control group (Normal), in which a total of 12 animals were given access to drinking water by gavage; the second group was a model group (AOM/DSS), in which a total of 22 animals were given access to drinking water by gavage; the third group was a positive drug control group (5-ASA+AOM/DSS), in which a total of 22 animals were given access to 100 mg/kg of mesalazine (5-ASA) by gavage; and the fourth and fifth groups were monotropein-intervening groups (Mo+AOM/DSS), which were a high dose of 8 mg/kg and a low dose of 2 mg/kg, respectively, with 17 animals in each group.” left out, “dissection. […]” for “dissection.”

A further assay deals with intestinal permeability. The assay can be described thus: Determination of intestinal permeability in serum with FITC-dextran. The following applies: after third stage of modeling; monotropein high and low doses, 5-ASA 100 mg/kg. On the procedure:
Experimental method: 90 Balb/c mice of 6-8 weeks were purchased from the Experimental Animal Center in Guangzhou University of Chinese Medicine, weighed about 18-22 g, and subjected to adaptive feeding for 10 days. Modeling was divided into three stages. In the first stage, except for the normal group of animals being given saline injection, each of the other animals were intraperitoneally injected with a carcinogen AOM (10 mg/kg), and given free access to 2% DSS water from the next day for 7 days, and then given access to replaced regular drinking water for 14 days. In the second stage, the animals were given free access to 2% DSS water for 10 days, and then given access to replaced regular drinking water for 14 days. In the third stage, the animals were given free access to 2% DSS water for 10 days, and then given access to replaced regular drinking water for 11 days. […] The diet, water drinking and body weights of the animals were recorded daily and DAI scores were made, and the animals were killed and harvested at the 10th week. […] 25 μl of serum was taken and added with 100 μl PBS, and determined on a microplate reader for its fluorescence intensity, where the wavelength of the exciting light was 480 nm, and the wavelength of the emitting light was 520 nm. A standard curve was made and the sample concentration was calculated.

For `Nc1ccc(O)c(C(=O)O)c1` [5-ASA, mesalazine, reference compound], the “spleen enlargement caused by AOM/DSS modeling (organ coefficient)” value in assay [1] (monotropein high (8 mg/kg) and low (2 mg/kg) doses, 5-ASA 100 mg/kg) is reported as “has no such effect”. In addition, the “anal prolapse occurrence at the third stage of modeling” value in assay [1] (per group, monotropein 8 mg/kg and 2 mg/kg groups (17 animals each), 5-ASA 100 mg/kg (22 animals), gavage daily, model group 8-12) is reported as 8-12 animals. Besides, the “level of IL-10 in tumor tissues” value in the assay with IL-6, IL-10, IL-1β is recorded as “no significant differences”. For the same compound, the “M1/M2 ratio of peripheral blood macrophages” value in assay [2] is “significantly reduced”. Moreover, the “intestinal permeability (FITC-dextran in serum) vs model group” value in the assay on intestinal permeability is on record as “not statistically significant”.
